One experiment has as its system U937. Nature of the experiment: Proliferation assay (resazurin/MTT), U937. The class given is cell-based. To be noted: Homo sapiens, U-937, read-out: 72 h Growth inhibition GI50, U937 cells.
The target in another experiment is CDK9/CyclinT1 (Homo sapiens, UniProt P50750). Nature of the experiment: ADP Glo kinase assay, CDK9/CyclinT1. The class given is biochemical. To be noted: CDK9T1; for remaining activity at 1 µM: compound at 1 μM (values marked *), read-out: residual enzymatic activity (%) at 1 μM*; for Ki: apparent Ki calculated from Km (ATP) and IC50, read-out: CDK inhibition Ki.

In a further experiment the target is CDK7HMAT1 (Homo sapiens, UniProt P50613).
A further experiment addresses CDK4/D1 (Homo sapiens, UniProt P11802). Nature of the experiment: ADP Glo kinase assay, CDK4/D1. The class given is biochemical. The conditions noted are these: CDK4D1; for remaining activity at 1 µM: compound at 1 μM (values marked *), read-out: residual enzymatic activity (%) at 1 μM*; for remaining activity at 10 µM: compound at 10 μM, read-out: residual enzymatic activity (%) at 10 μM. For orientation: ADP-Glo turns the ADP formed in a reaction into a luminescent signal.

The target of the next experiment is CDK2E1 (Homo sapiens, UniProt P24941). The conditions noted are these: 1 µM.
A further experiment concerns the target CDK1B (Homo sapiens, UniProt P06493).
The next experiment relates to MV-4-11. The experiment in a line: Proliferation assay (resazurin/MTT), MV-4-11. To be noted: Homo sapiens, MV4-11, read-out: 72 h Growth inhibition GI50, MV-4-11 cells. The class given is cell-based. Background: Resazurin is reduced to fluorescent resorufin, in cell work by metabolically active cells.
For the next experiment, the target named is CDK6/D3 (Homo sapiens, UniProt Q00534). The experiment in a line: ADP Glo kinase assay, CDK6/D3. The conditions noted are these: CDK6D3; for remaining activity at 1 µM: compound at 1 μM (values marked *), read-out: residual enzymatic activity (%) at 1 μM*; for remaining activity at 10 µM: compound at 10 μM, read-out: residual enzymatic activity (%) at 10 μM. The class given is biochemical.

Each structure is given as a SMILES string. Where two headings read alike, the source gives them in different places.

CDK9/CyclinT1, sequence (P50750 whole entry, species assumed): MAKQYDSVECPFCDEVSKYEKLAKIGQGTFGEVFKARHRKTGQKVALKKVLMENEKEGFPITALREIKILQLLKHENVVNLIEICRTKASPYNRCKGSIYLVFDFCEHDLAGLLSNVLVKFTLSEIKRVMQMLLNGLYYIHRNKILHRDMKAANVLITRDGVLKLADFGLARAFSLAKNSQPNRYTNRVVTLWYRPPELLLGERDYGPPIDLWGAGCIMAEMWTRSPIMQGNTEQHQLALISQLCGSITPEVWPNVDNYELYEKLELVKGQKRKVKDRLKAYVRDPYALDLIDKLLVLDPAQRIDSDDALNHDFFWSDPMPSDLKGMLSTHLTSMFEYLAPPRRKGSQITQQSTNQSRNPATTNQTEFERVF
CDK9/CyclinT1, sequence (O60563 whole entry partner, species assumed): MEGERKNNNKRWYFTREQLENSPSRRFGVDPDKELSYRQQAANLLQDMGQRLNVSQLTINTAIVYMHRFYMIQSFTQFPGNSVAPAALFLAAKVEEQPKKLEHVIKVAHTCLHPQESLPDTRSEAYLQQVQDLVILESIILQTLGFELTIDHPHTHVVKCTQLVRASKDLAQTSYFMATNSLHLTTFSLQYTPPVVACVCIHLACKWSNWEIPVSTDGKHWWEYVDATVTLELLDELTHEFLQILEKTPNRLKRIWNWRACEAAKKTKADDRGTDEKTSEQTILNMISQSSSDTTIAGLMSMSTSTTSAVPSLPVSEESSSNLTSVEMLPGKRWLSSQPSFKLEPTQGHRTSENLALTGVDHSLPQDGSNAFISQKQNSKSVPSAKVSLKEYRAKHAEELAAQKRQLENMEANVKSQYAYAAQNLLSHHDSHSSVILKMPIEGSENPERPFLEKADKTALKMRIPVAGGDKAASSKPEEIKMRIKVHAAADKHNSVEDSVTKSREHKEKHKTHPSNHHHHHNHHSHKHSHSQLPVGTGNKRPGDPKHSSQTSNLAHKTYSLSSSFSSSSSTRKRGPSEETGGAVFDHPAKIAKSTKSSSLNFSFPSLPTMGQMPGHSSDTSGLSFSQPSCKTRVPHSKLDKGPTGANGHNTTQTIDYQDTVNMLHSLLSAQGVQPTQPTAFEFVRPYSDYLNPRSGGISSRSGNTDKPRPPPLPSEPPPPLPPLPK
CDK1B, sequence (P06493 whole entry): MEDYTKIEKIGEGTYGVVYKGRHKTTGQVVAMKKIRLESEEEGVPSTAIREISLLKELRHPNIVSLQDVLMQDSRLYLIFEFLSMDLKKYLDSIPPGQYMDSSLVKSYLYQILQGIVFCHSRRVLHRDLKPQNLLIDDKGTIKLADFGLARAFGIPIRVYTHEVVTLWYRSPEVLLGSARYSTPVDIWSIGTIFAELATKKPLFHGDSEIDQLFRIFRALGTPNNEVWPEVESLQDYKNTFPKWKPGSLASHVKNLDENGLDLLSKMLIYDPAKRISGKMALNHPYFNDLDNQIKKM
CDK1B, sequence (P14635 whole entry partner): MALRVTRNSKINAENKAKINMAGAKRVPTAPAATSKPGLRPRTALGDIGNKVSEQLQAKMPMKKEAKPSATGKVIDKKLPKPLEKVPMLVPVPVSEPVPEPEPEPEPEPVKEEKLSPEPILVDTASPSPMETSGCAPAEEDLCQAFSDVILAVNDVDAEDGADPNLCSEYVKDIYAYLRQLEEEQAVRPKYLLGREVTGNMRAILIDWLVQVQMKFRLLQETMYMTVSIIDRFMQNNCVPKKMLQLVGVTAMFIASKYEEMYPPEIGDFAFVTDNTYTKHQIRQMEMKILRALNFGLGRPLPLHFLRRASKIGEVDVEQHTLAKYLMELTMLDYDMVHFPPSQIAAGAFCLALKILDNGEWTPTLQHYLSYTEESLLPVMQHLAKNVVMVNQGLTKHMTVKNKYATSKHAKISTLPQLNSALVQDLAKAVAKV
CDK7HMAT1, sequence (P50613 whole entry): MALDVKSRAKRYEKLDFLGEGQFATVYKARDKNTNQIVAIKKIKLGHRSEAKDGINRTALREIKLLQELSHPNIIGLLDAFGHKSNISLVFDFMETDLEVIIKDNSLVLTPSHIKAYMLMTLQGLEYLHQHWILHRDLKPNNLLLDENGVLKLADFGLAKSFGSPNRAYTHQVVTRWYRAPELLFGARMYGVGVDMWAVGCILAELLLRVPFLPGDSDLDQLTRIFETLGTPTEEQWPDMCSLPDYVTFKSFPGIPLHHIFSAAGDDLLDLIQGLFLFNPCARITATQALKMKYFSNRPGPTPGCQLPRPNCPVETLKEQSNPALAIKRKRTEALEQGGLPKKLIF
CDK7HMAT1, sequence (P51946 whole entry partner): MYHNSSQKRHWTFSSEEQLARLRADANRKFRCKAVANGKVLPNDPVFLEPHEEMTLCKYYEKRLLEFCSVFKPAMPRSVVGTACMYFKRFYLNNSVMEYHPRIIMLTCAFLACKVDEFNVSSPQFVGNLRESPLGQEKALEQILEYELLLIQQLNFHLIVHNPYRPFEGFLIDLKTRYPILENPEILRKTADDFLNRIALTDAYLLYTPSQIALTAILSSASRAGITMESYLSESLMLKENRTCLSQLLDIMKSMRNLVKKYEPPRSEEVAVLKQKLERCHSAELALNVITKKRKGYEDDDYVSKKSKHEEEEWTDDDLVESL
CDK7HMAT1, sequence (P51948 whole entry partner): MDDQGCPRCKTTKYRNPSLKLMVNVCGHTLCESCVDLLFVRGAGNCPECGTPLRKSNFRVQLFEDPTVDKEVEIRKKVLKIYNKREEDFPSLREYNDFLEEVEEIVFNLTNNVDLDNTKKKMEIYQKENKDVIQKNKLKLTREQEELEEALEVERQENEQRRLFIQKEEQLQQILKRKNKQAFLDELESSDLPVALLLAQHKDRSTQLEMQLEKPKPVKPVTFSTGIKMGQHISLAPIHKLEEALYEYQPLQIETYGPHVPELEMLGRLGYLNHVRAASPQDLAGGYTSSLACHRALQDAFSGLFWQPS
CDK4/D1, sequence (P11802 whole entry, species assumed): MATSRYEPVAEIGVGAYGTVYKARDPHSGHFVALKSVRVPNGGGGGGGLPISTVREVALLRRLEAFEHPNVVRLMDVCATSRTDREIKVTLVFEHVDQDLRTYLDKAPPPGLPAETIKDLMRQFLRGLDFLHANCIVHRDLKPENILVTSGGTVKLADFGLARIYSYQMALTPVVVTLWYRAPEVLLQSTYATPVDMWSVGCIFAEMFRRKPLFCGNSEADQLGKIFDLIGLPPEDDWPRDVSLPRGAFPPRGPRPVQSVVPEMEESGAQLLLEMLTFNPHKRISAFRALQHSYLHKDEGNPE
CDK4/D1, sequence (P24385 whole entry partner, species assumed): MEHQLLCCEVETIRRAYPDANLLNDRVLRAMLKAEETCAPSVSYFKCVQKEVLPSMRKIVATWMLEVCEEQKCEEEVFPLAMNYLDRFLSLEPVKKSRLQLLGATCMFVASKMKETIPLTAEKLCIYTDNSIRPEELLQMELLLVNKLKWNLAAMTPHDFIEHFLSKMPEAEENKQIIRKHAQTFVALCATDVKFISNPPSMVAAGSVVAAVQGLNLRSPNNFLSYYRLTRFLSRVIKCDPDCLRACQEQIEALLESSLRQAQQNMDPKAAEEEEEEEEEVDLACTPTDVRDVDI
CDK6/D3, sequence (Q00534 whole entry, species assumed): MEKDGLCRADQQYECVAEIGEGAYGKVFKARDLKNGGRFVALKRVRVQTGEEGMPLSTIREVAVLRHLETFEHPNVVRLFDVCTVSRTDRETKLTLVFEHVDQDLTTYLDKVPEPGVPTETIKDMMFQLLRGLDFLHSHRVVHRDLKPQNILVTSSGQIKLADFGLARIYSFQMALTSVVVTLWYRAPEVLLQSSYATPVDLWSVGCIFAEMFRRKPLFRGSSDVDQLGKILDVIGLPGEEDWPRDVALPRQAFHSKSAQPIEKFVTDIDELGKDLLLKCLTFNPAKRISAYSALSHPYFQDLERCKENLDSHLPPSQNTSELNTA
CDK6/D3, sequence (P30281 whole entry partner, species assumed): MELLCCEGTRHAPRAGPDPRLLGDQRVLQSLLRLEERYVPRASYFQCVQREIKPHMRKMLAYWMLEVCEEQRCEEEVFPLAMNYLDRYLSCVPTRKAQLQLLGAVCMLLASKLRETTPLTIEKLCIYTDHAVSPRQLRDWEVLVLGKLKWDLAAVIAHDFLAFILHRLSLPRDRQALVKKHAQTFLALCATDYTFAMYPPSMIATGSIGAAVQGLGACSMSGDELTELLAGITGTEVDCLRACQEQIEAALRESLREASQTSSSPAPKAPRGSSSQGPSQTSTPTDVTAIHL
Description for CDK6/D3: Inhibition of FLT3(WT), FLT3(ITD) and FLT3(D835Y) and CDKs were determined using ADP Glo Kinase assays (Promega Corporation, Madison, WI, USA). […] Similarly, kinase reaction for CDK4/D1 and CDK6/D3 was performed with reaction buffer (40 nM Tris base pH 7.5, 20 mM MgCl2, 0.4 mM DTT), 0.1 mg/ml BSA and RB-CTF substrate (retinoblastoma protein1 C-terminal fraction). For CDK9/CyclinT1, the kinase reaction was performed with the standard assay buffer and Kinase Dilution Buffer and RBER-IRStide substrate. Half-maximal inhibition (IC50) values were calculated using a 4-parameter logistic non-linear regression model with Graphpad prism (Version 6.0). Apparent inhibition constants (Ki) values were calculated from Km (ATP) and IC50 values for the respective kinases.
Description for CDK7HMAT1: Inhibition of FLT3(WT), FLT3(ITD) and FLT3(D835Y) and CDKs were determined using ADP Glo Kinase assays (Promega Corporation, Madison, WI, USA). […] The kinase reactions are run for an optimised time period (FLT3-WT: 120 min, FLT3-ITD: 80 min, FLT3-D835Y: 100 min) at room temperature and then the reaction was stopped by adding 5 μL of ADP Glo reagent. […] Positive and negative controls were performed in 0.5% DMSO in the presence and absence of each FLT3 kinase, respectively. […] Half-maximal inhibition (IC50) values were calculated using a 4-parameter logistic non-linear regression model with Graphpad prism (Version 6.0). Apparent inhibition constants (Ki) values were calculated from Km (ATP) and IC50 values for the respective kinases.

Turning to `CC(=O)N1CCN(c2ccc(Nc3nccc(-c4cnc5ccc(-c6cn(S(=O)(=O)c7ccccc7)c7ncccc67)cn45)n3)nc2)CC1` [Cmpd 38, 1-(4-(6-((4-(6-(1-(Phenylsulfonyl)-1H-pyrrolo[2,3-b]pyridin-3-yl)imidazo[1,2-a]pyridin-3-yl)pyrimidin-2-yl)amino)pyridin-3-yl)piperazin-1-yl)ethan-1-one], the GI50 (in general, the concentration at which growth is held to half of that of the control) is 2910 nM with U937 and 44 nM in the experiment on MV-4-11. Besides, the remaining activity at 1 µM at CDK9/CyclinT1 came out at 85%; on CDK4/D1, 70%; on CDK6/D3, 70%. Besides, the activity at CDK7HMAT1 (1 µM) came out at 102%; on CDK2E1, 82%; on CDK1B (1 µM) it was 99%.

As for `CC(=O)N1CCN(c2ccc(Nc3ncc(F)c(-c4cnc5ccccn45)n3)nc2)CC1` [Cmpd 29, 1-(4-(6-((5-Fluoro-4-(imidazo[1,2-a]pyridin-3-yl)pyrimidin-2-yl)amino)pyridin-3-yl)piperazin-1-yl)ethan-1-one], the GI50 in the experiment on U937 was found to be 393 nM; with MV-4-11 it was 43 nM. The remaining activity at 1 µM on CDK9/CyclinT1 was determined as 36%; on CDK4/D1 it was 59%; on CDK6/D3, 59%. For the same compound, the activity at CDK7HMAT1 (1 µM) worked out at 82%; at CDK2E1 it was 47%; at CDK1B (1 µM), 100%.

Take `CC(=O)N1CCN(c2ccc(Nc3ncc(F)c(-c4cnc5ccc(F)cn45)n3)nc2)CC1` [Cmpd 30, 1-(4-(6-((5-Fluoro-4-(6-fluoroimidazo[1,2-a]pyridin-3-yl)pyrimidin-2-yl)amino)pyridin-3-yl)piperazin-1-yl)ethan-1-one]: the GI50 in the experiment on U937 was determined as 4040 nM; in the experiment on MV-4-11, 72 nM. The remaining activity at 1 µM on CDK9/CyclinT1 stood at 33%; at CDK4/D1 it was 55%; at CDK6/D3, 58%. Besides, the values for the activity at CDK7HMAT1 (1 µM), at CDK2E1 and on CDK1B (1 µM) were 77%, 51% and 96%, respectively.

In the case of `CC(=O)N1CCN(c2ccc(Nc3nccc(-c4cnc5ccc(-c6cc7ccccc7s6)cn45)n3)nc2)CC1` [Cmpd 22, 1-(4-(6-((4-(6-(Benzo[b]thiophen-2-yl)imidazo[1,2-a]pyridin-3-yl)pyrimidin-2-yl)amino)pyridin-3-yl)piperazin-1-yl)ethan-1-one], the figures for the GI50 in the experiment with U937 and in the experiment on MV-4-11 were > 10000 nM and 2 nM, respectively. Besides, the Ki at CDK9/CyclinT1 is > 5000 nM. The figures for the activity at CDK7HMAT1 (10 µM), at CDK2E1 and at CDK1B (10 µM) were 106%, 83% and 100%, respectively. Also, the remaining activity at 10 µM was determined as 64% on CDK4/D1 and 102% at CDK6/D3.

Take `CC(=O)N1CCN(c2ccc(Nc3nccc(-c4cnc5ccc(-c6cc7ccccc7o6)cn45)n3)nc2)CC1` [Cmpd 21, 1-(4-(6-((4-(6-(Benzofuran-2-yl)imidazo[1,2-a]pyridin-3-yl)pyrimidin-2-yl)amino)pyridin-3-yl)piperazin-1-yl)ethan-1-one]: the GI50 turned out to be 4560 nM in the experiment on U937 and 17 nM in the experiment on MV-4-11. Besides, at CDK9/CyclinT1, the Ki was > 5000 nM. In addition, the activity on CDK7HMAT1 (10 µM) is 97%; at CDK2E1 it was 86%; at CDK1B (10 µM) it was 95%. The remaining activity at 10 µM stood at 78% at CDK4/D1 and 102% at CDK6/D3.

`COc1ncc(-c2ccc3ncc(-c4ccnc(Nc5ccc(N6CCN(C(C)=O)CC6)cn5)n4)n3c2)cn1` [Cmpd 19, 1-(4-(6-((4-(6-(2-Methoxypyrimidin-5-yl)imidazo[1,2-a]pyridin-3-yl)pyrimidin-2-yl)amino)pyridin-3-yl)piperazin-1-yl)ethan-1-one]: the GI50 came to 6710 nM with U937 and 17 nM in the experiment on MV-4-11. Moreover, the remaining activity at 10 µM was determined as 33% on CDK9/CyclinT1 (compound at 10 μM, read-out: residual enzymatic activity (%) at 10 μM); 53% at CDK4/D1; 65% at CDK6/D3. Besides, the results for the activity at CDK7HMAT1 (10 µM), on CDK2E1 and on CDK1B (10 µM) were 54%, 82% and 96%, respectively.

The record behind these values is US12398132B2, “Derivatives of 4-(imidazo[1,2-a]pyridin-3-yl)-n-(pyridinyl)pyrimidin-2-amine as therapeutic agents” (AUCENTRA THERAPEUTICS PTY LTD, priority 2019, dated 2025).
